SMILES strings stand for the structures. Where “and” joins values, the source holds several entries; their conditions need not be identical. Equal entries are not always repeated.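 How tested: cells in 96-well plates exposed to compound for 48 hours at five concentrations. At the GI50, growth is halved. TGI denotes the concentration required for complete inhibition of growth.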

Test systems include CCRF-CEM leukemia; ACHN renal; MALME-3M melanoma; OVCAR-3 ovarian; SF-268 CNS; 786-0 renal; RXF 393 renal; OVCAR-5 ovarian; HCC-2998 colon; NCI-H522 lung.
What all share (assay): growth of human tumour cells (NCI), 48 h

As for `CCCCCCCCCCCCCCCCCC1=NC(C)(C)CN1CC(C)O` (centres undefined), the GI50 in the experiment with CCRF-CEM leukemia is 2.71 µM; in the experiment with ACHN renal it was 7.94 µM; in the experiment with MALME-3M melanoma it was 17.1 µM; in the experiment with OVCAR-3 ovarian, 5.35 µM; with SF-268 CNS, 1.94 µM; in the experiment with 786-0 renal, 14.9 µM. Besides, the GI50 was 14.2 µM in the experiment with RXF 393 renal, 15.5 µM with OVCAR-5 ovarian, 6.01 µM in the experiment with HCC-2998 colon and 4.5 µM in the experiment with NCI-H522 lung. The TGI with CCRF-CEM leukemia was 7.39 µM; in the experiment on ACHN renal, 21.9 µM; in the experiment with MALME-3M melanoma it was 34.4 µM; with OVCAR-3 ovarian it was 19.5 µM; in the experiment with SF-268 CNS, 4.06 µM; with 786-0 renal, 31.7 µM. Also, the TGI is 31.9 µM in the experiment with RXF 393 renal, 31.7 µM in the experiment on OVCAR-5 ovarian, 18.9 µM in the experiment on HCC-2998 colon and 23.8 µM in the experiment with NCI-H522 lung.
Take `COc1ccc(/C=C/C(=O)/C=C/c2cc3ccccc3[nH]c2=O)cc1`: the GI50 was 2.98 µM with CCRF-CEM leukemia; 3.81 µM in the experiment on ACHN renal; 9.17 µM in the experiment with MALME-3M melanoma; 2.85 µM in the experiment on OVCAR-3 ovarian; 3.11 µM in the experiment on SF-268 CNS; 1.87 µM in the experiment with 786-0 renal. In addition, the GI50 with RXF 393 renal was 3.31 µM; with OVCAR-5 ovarian, 5.13 µM; with HCC-2998 colon, 2.19 µM; in the experiment with NCI-H522 lung it was 1.97 µM. Further, the TGI with CCRF-CEM leukemia came to 9.68 µM; with ACHN renal, 15.5 µM; with MALME-3M melanoma, 35.6 µM; in the experiment on OVCAR-3 ovarian, 7.91 µM; in the experiment with SF-268 CNS, 11.4 µM; with 786-0 renal, 3.51 µM. The TGI amounted to 11.9 µM with RXF 393 renal, 19.9 µM in the experiment with OVCAR-5 ovarian, 4.13 µM in the experiment on HCC-2998 colon and 4.67 µM in the experiment with NCI-H522 lung.
With `C=CCn1c(C)nc2ccc(Nc3nc(Nc4ccc(F)cc4)nc4ccccc34)cc21`, the GI50 with CCRF-CEM leukemia was 3.01 µM; with ACHN renal it was 1.99 µM; in the experiment with MALME-3M melanoma, 13.1 µM; in the experiment on OVCAR-3 ovarian it was 5.04 µM; in the experiment with SF-268 CNS it was 8.69 µM; in the experiment with 786-0 renal, 7.44 µM. The GI50 was 1.23 µM with RXF 393 renal, 11.6 µM in the experiment with OVCAR-5 ovarian, 8.87 µM in the experiment on HCC-2998 colon and 3.12 µM in the experiment on NCI-H522 lung. Besides, the TGI with CCRF-CEM leukemia turned out to be 11.7 µM; in the experiment on ACHN renal it was 4.31 µM; with MALME-3M melanoma it was 35.7 µM; in the experiment on OVCAR-3 ovarian, 17.8 µM; in the experiment on SF-268 CNS, 27.8 µM; in the experiment on 786-0 renal, 23.8 µM. The TGI with RXF 393 renal is 2.57 µM; in the experiment on OVCAR-5 ovarian it was 26.6 µM; in the experiment with HCC-2998 colon it was 23.5 µM; in the experiment on NCI-H522 lung, 13.4 µM.
Regarding `S=c1snc2n1CCN2`, the GI50 was 33.4 µM in the experiment with CCRF-CEM leukemia; more than 100 µM with ACHN renal; more than 100 µM in the experiment on MALME-3M melanoma; more than 100 µM in the experiment on OVCAR-3 ovarian; more than 100 µM in the experiment with SF-268 CNS; 91.7 µM in the experiment with 786-0 renal. In addition, the GI50 with RXF 393 renal is more than 100 µM; in the experiment with OVCAR-5 ovarian, more than 100 µM; with HCC-2998 colon, 19.3 µM; in the experiment on NCI-H522 lung it was 40.9 µM. Besides, the TGI in the experiment on CCRF-CEM leukemia, in the experiment with ACHN renal, in the experiment on MALME-3M melanoma, with OVCAR-3 ovarian, in the experiment with SF-268 CNS and in the experiment on 786-0 renal was more than 100 µM each time. Besides, the TGI with RXF 393 renal is more than 100 µM; in the experiment with OVCAR-5 ovarian, more than 100 µM; with HCC-2998 colon it was 74.7 µM; with NCI-H522 lung, more than 100 µM.
Regarding `CC(C)Nc1cc(-c2c[nH]c(C(=O)N[C@H](CO)c3cccc(Cl)c3)c2)c(Cl)cn1`, the GI50 was 4.09 µM and 4.7 µM with CCRF-CEM leukemia; 2.24 µM and 2.08 µM in the experiment on ACHN renal; 0.0249 µM and 0.0475 µM with MALME-3M melanoma; 4.66 µM and > 9.46 µM in the experiment with OVCAR-3 ovarian; 4.46 µM and > 7.71 µM in the experiment with SF-268 CNS; 2.85 µM and 3.23 µM in the experiment on 786-0 renal. Moreover, the GI50 was 2.14 µM and 1.06 µM with RXF 393 renal; 0.259 µM and 0.187 µM in the experiment with OVCAR-5 ovarian; 0.19 µM and 0.209 µM with HCC-2998 colon; 2.33 µM and 2.35 µM with NCI-H522 lung. For the same molecule, the TGI in the experiment with CCRF-CEM leukemia is more than 100 µM; in the experiment on ACHN renal it was 14.9 µM and > 10 µM; in the experiment on MALME-3M melanoma, 0.149 µM; in the experiment on OVCAR-3 ovarian it was 18.8 µM and > 10 µM; in the experiment with SF-268 CNS, 24.5 µM and > 10 µM; with 786-0 renal it was 18.3 µM and > 10 µM. Moreover, the TGI was 15 µM and > 10 µM with RXF 393 renal; 16.2 µM and > 10 µM in the experiment with OVCAR-5 ovarian; 13.8 µM and > 10 µM in the experiment with HCC-2998 colon; 19.8 µM and > 10 µM in the experiment on NCI-H522 lung.
In the case of `O=S(=O)(NC1=NCCN1C(=S)SN1CCn2c1nsc2=S)c1cccc2ccccc12`, the GI50 was 2.5 µM in the experiment with CCRF-CEM leukemia; 27.5 µM with ACHN renal; 12.3 µM in the experiment with MALME-3M melanoma; 16.5 µM in the experiment with OVCAR-3 ovarian; 23.3 µM with SF-268 CNS; 23.9 µM with 786-0 renal. Further, the GI50 was 10.5 µM in the experiment on RXF 393 renal, 61 µM in the experiment on OVCAR-5 ovarian, 21.4 µM with HCC-2998 colon and 12.2 µM in the experiment with NCI-H522 lung. Besides, the TGI in the experiment on CCRF-CEM leukemia was more than 100 µM; in the experiment with ACHN renal, more than 100 µM; in the experiment with MALME-3M melanoma, 57.4 µM; with OVCAR-3 ovarian, 40.3 µM; in the experiment with SF-268 CNS, more than 100 µM; with 786-0 renal it was 72.6 µM. For the same molecule, the TGI in the experiment on RXF 393 renal was 67.2 µM; with OVCAR-5 ovarian, more than 100 µM; in the experiment on HCC-2998 colon, 53.2 µM; in the experiment with NCI-H522 lung, 36.1 µM.
`COc1ccc2c(=O)cc(-c3ccccc3)[nH]c2c1`: the GI50 in the experiment on CCRF-CEM leukemia is 1.48 µM; in the experiment with ACHN renal, 4.22 µM; in the experiment on MALME-3M melanoma it was 0.684 µM; in the experiment on OVCAR-3 ovarian, 0.408 µM; in the experiment with SF-268 CNS, 1.28 µM; in the experiment on 786-0 renal it was 4.56 µM. The GI50 in the experiment on RXF 393 renal was 0.762 µM; with OVCAR-5 ovarian, 22.2 µM; in the experiment on HCC-2998 colon it was 1.27 µM; with NCI-H522 lung it was 0.698 µM. The TGI in the experiment with CCRF-CEM leukemia was more than 100 µM; in the experiment with ACHN renal it was more than 100 µM; with MALME-3M melanoma, more than 100 µM; in the experiment with OVCAR-3 ovarian, 2.14 µM; in the experiment on SF-268 CNS, more than 100 µM; in the experiment on 786-0 renal, more than 100 µM. The TGI with OVCAR-5 ovarian was more than 100 µM; with HCC-2998 colon, 8.9 µM; in the experiment with NCI-H522 lung, 14.2 µM.

(Values after PubChem BioAssay (NCI).)
